Reference: publication PMC8955938, “c-Myc Protein Level Affected by Unsymmetrical Bisacridines Influences Apoptosis and Senescence Induced in HCT116 Colorectal and H460 Lung Cancer Cells” (International Journal of Molecular Sciences, 2022)

Experiments:
H460 cells = assay: Accelerated senescence (SA-β-gal), H460; assay type: cell-based, human; conditions: H460, IC90 doses, 72 and 120 h
Experimental: The accelerated senescence examination was based on the analysis of pH 6.0-dependent β-galactosidase (SA-β-gal) expression together with senescence-related morphology, such as enlarged and flattened cells. HCT116 and H460 cells were seeded in 60 mm plates containing microscope coverslips and treated with UAs for up to 120 h. After the treatment, coverslips with attached cells were moved to 35 mm dishes, washed twice with PBS and fixed with […] for 5 min. The cells were then washed twice with PBS (pH 6.0) and incubated at pH 6.0 with X-gal (5-bromo-4-chloro-3-indolyl-β-D-[…], substrate for SA-β-gal) staining solution (1 mg/mL X-gal, 40 mmol/L citric acid/sodium phosphate, pH 6.0, 5 mmol/L potassium ferrocyanide, 5 mmol/L potassium ferricyanide, 150 mmol/L NaCl, 2 mmol/L MgCl2). Following overnight incubation at 37 °C, cells were washed twice with PBS and observed under a light microscopy (OLYMPUS BX60; magnification ×200).

MRC-5 cells = assay: MTT cell growth inhibition assay, MRC-5; assay type: cell-based, human; conditions: for IC50: MRC-5 normal cells; for IC90: MRC5, MRC-5 normal cells
Experimental: To assess cell viability, the MTT assay was used. HCT116, H460, CCD 841 CoN and MRC-5 cells (20,000/well and 50,000/well for cancer and normal cells, respectively) were seeded in 24-well plates, and the following UAs were added at concentrations up to 10 μM: C-2028, C-2041, C-2045 and C-2053. Stock solutions (10 mM) were prepared in sterile water, as well as dilutions, also in water. After 72 h, 3-(4, 5-dimethylthiazol-2-yl)-2,5-diphenyltetrazolium bromide (MTT; 800 μg/well) was added for 3 h, then the formazan crystals were dissolved in DMSO, and absorbance was read at 540 nm. Each point was conducted at least 4 times, and data are expressed relative to controls. The concentration of the drug required to inhibit cells growth by 50 (IC50), 80 (IC80) and 90% (IC90) compared to untreated control cells was determined from the curves plotting survival as a function of dose.

HCT116 cells = assay: Nuclear morphology (Hoechst 33342), HCT116; assay type: cell-based, human; conditions: HCT116, IC90 doses
Experimental: Nuclear morphology was examined under a fluorescence microscope (OLYMPUS BX60, […]) after staining with Hoechst 33342. Briefly, after drug treatment, HCT116, H460, CCD 841 CoN and MRC-5 cells were spun onto microscopic slides, fixed with methanol:acetic acid (3:1) for 15 min and stained with Hoechst 33342 (1 mg/mL) for 15 min. Cells were regarded as apoptotic based on the presence of condensed, fragmented chromatin. Enlarged cells containing multiple nuclei were considered as typical of mitotic catastrophe.

[1] = system: MYC gene expression in HCT116 cells; assay: RT-PCR MYC expression in HCT116; assay type: cell-based, human; conditions: HCT116, IC90 doses, 120 h, 2^-ΔΔCt
Experimental: HCT116, H460, CCD 841 CoN and MRC-5 cells after treatment with UAs were collected, washed twice with ice-cold PBS and resuspended in […] of PBS. mRNA was isolated using High Pure RNA Isolation Kit according to the manufacturer’s instructions (Roche, Basel, Switzerland). Briefly, cells were lysed in lysis-binding buffer and transferred to a filter tube. Contaminating DNA was removed by 15 min incubation of the filter tube with DNase I solution. The filter tube was washed once with buffer I and twice with buffer II, and after centrifugation, total RNA was eluted using the elution buffer. RNA concentration was determined by NanoDrop One (Thermo Scientific); 1 µg of RNA was reverse transcribed using Transcriptor First Strand cDNA Synthesis Kit according to the manufacturer’s instructions (Roche) in 20 µL of reaction containing 1 µg of RNA, […] anchored-oligo(dT)18Primer, 8 mM MgCl2, 20 U of Protector RNase Inhibitor, deoxynucleotide mix (1 mM each) and 22 U of Transcriptor Reverse Transcriptase. The reverse transcription reaction was carried out for 30 min at 55 °C and stopped by heating to 85 °C for 5 min and placing on ice. The cDNA solution was stored at −20 °C until use. […] The relative expression level of MYC and KRAS was quantified using comparative method […]. The results were obtained from three independent experiments, each of which was analyzed at least twice.

H460 spheroids = system: H460 spheroids; set-up: method as in PMID 34684841; conditions: H460 3D spheroids; cited from earlier work
HCT116 spheroids = system: HCT116 spheroids; set-up: method as in PMID 34684841; conditions: HCT116 3D spheroids; cited from earlier work

| SMILES | accelerated senescence (SA-β-gal blue staining) (H460 cells) | IC50 (MRC-5 cells; Homo sapiens, MRC5, 72 h) [nM] | IC90 (MRC-5 cells; Homo sapiens, 72 h) [nM] | apoptotic cells (nuclear morphology) (HCT116 cells; 72 h) [%] | MYC expression, fold increase [1] [fold] | inhibition of spheroids growth (H460 spheroids) | inhibition of spheroids growth (HCT116 spheroids) | IC50 (MRC-5 cells; 72 h) [nM] | apoptotic cells (nuclear morphology) (HCT116 cells; 72 and 120 h) |
| --- | --- | --- | --- | --- | --- | --- | --- | --- | --- |
| CN(CCCNc1c2ccccc2nc2cccc([N+](=O)[O-])c12)CCCNc1ccc2ncn3c4ccccc4c(=O)c1c23 [Compound C-2028] | induced senescence to the highest extent | ~20 | 2690 ± 640 | – | – | – | – | – | – |
| O=c1c2ccccc2n2cnc3ccc(NCCCN4CCN(CCCNc5c6ccccc6nc6cccc([N+](=O)[O-])c56)CC4)c1c32 [Compound C-2041] | – | 23 ± 4 | 6160 ± 2060 | 29.4 | 3.3 | to the least extent | to the least extent | – | – |
| Cc1ccc([N+](=O)[O-])c2c(NCCCN(C)CCCNc3ccc4ncn5c6ccc(O)cc6c(=O)c3c45)c3ccccc3nc12 [Compound C-2045] | – | ~300 | 6130 ± 2350 | 20.6 | 5.3 | – | – | 218 ± 37 | – |
| Cc1ccc([N+](=O)[O-])c2c(NCCCN(C)CCCNc3ccc4ncn5c6ccccc6c(=O)c3c45)c3ccccc3nc12 [Compound C-2053] | least profound changes | 120 ± 26 | 3800 ± 1340 | – | – | to the greatest extent | to the greatest extent | – | up to 6.4% |
